Assays:
[1] = target: Prostaglandin G/H synthase 1 (Homo sapiens, UniProt P23219); assay: Inhibition of COX1 by enzyme immunoassay
[2] = target: T1, Prostaglandin G/H synthase 2 (Homo sapiens, UniProt P35354); assay: Inhibition of COX2 by enzyme immunoassay
T1 sequence (P35354 whole entry): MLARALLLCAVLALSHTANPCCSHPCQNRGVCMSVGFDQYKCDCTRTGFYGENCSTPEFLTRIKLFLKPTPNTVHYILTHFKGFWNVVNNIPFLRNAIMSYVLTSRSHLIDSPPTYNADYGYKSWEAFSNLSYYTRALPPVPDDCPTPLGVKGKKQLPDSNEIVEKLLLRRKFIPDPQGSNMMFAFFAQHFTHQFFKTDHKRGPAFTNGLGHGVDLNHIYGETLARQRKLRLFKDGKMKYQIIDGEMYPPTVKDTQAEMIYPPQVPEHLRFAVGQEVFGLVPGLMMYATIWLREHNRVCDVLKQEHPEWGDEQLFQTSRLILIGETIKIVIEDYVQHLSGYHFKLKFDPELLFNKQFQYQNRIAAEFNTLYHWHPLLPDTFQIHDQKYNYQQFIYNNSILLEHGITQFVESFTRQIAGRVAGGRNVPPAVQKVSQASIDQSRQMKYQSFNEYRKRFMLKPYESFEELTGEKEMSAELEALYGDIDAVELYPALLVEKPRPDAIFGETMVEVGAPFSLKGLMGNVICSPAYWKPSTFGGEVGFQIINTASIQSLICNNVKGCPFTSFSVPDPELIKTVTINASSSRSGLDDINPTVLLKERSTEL

[3] = Selectivity index, ratio of IC50 for COX1 to IC50 COX2

Chain of Prostaglandin G/H synthase 1 (P23219 whole entry): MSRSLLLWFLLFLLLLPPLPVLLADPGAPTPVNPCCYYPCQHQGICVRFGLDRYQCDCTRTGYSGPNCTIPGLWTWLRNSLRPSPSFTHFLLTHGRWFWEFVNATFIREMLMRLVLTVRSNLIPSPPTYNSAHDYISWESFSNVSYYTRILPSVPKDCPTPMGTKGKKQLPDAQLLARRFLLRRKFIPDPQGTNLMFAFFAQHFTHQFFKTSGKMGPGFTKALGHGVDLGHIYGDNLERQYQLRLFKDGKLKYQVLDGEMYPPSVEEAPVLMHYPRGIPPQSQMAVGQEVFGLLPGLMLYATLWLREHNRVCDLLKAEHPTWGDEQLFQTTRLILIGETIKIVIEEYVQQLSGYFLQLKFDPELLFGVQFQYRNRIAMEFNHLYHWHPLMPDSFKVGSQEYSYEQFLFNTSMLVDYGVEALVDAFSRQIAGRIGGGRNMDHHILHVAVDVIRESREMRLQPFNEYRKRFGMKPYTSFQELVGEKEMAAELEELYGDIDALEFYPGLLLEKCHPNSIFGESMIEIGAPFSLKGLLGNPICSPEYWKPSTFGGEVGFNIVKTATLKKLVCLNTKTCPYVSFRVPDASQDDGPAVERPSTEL

IC50 [1] [µM] | IC50 [2] [nM] | Ratio IC50 [3] | SMILES
> 100 | > 10000 |  | CN(C)c1ccc(-c2cn(-c3ccc(S(C)(=O)=O)cc3)nn2)cc1
0.91 | 30 | 30.3 | CS(=O)(=O)c1ccc(-n2nncc2-c2ccc(F)cc2)cc1
12.2 | 190 | 64 | CS(=O)(=O)c1ccc(-n2cc(-c3ccc(Cl)cc3)nn2)cc1
12.5 | 210 | 59 | CS(=O)(=O)c1ccc(-n2cc(-c3ccc(F)cc3)nn2)cc1
0.7 | 40 | 17.5 | CS(=O)(=O)c1ccc(-n2nncc2-c2ccc(Cl)cc2)cc1
45 | 2500 | 18 | Cc1ccc(-c2cn(-c3ccc(S(C)(=O)=O)cc3)nn2)cc1
5 |  |  | COc1ccc(C2=C(c3ccc(S(C)(=O)=O)cc3)CCC2)cc1

The next lines start with the compound.

SMILES | IC50 [1] [µM] | IC50 [2] [nM] | Ratio IC50 [3]
CS(=O)(=O)c1ccc(-n2nncc2-c2ccccc2)cc1 | 0.81 | 110 | 7.5
Cc1ccc(-c2cnnn2-c2ccc(S(C)(=O)=O)cc2)cc1 | 0.78 | 120 | 6.5
COc1ccc(-c2cnnn2-c2ccc(S(C)(=O)=O)cc2)cc1 | 0.83 | 170 | 4.9
CN(C)c1ccc(-c2cnnn2-c2ccc(S(C)(=O)=O)cc2)cc1 | 0.84 | 360 | 2.3
CS(=O)(=O)c1ccc(-n2cc(-c3ccccc3)nn2)cc1 | 20.8 | 150 | 139
COc1ccc(-c2cn(-c3ccc(S(C)(=O)=O)cc3)nn2)cc1 | 10 | 2500 | 4
